Test results reported in patent publication US9303076B2, “Cell-penetrating peptides and uses thereof” (Hoffmann-La Roche Inc., priority 2010, dated 2016).

Assays:
[1] = tested on: human Aha1 mRNA; experiment: siRNA transfection in the presence of serum; format: cell-based; conditions: serum-containing medium
Description: NRTN was analyzed for its ability to transfect siRNA duplexes in the absence (A) and presence (B) of serum in the transfection medium. The experimental approach was the same as in FIG. 3. The assay was either carried out in normal RPMI 1640 growth medium containing 10% FCS (B) or for three hours in OptiMEM reduced serum medium followed by change of the medium back to normal growth medium (A). The mRNA values obtained at 1 μM were set to 100% to show dose dependent effects. Aha1 siRNA is shown as black filled squares; luciferase siRNA is shown as non-filled circles.
Most of the assays described herein were performed under the “standard in vitro conditions” for the detection of peptide-mediated transfection that are well established in the art (see, e.g., Simeoni, F. et al. (2003) Nucleic Acids Res. 31, 2717-2724; Richard, J. P. et al. (2005) J. Biol. Chem. 280, 15300-15306; Abes, R. et al. (2007) Biochem. Soc. Trans. 35, 775-779; Kumar, P. et al. (2007) Nature 448, 39-43; Mueller, J. et al. (2008) Bioconjug. Chem. 19, 2363-2374; Sugita, T. et al. (2008) Br. J. Pharmacol. 153, 1143-1152). Accordingly, the incubation for the initial “transfection step” is performed under basically serum free conditions. The addition of serum at this step interferes with the transfection ability of the CPPs (cf. FIG. 13; see also Ignatovich, I. A. et al. (2003), supra). […]

[2] = tested on: MCF-7 human breast cancer cells; experiment: cell viability/apoptosis after 24 h exposure to pro-apoptotic peptides and CPP fusions; format: cell-based; conditions: MCF-7 cells, various concentrations
Description: (§1) MCF-7 human breast cancer cells were incubated for 24 h in the presence of various concentrations of NRTN (squares), Nur (circles), and NurNRTN (triangles) peptides. The respective amino acid sequences are given in the bottom panel. The experimental approach for assessing cell viability (and thus induction of apoptosis) was the same as in FIG. 3.
as §1, with “4E-BP1 (circles), TAT4E-BP1” for “NRTN”, “(squares),” for “(squares), Nur (circles),”, “NRTN4E-BP1” for “NurNRTN”, “peptides (top panel). […]” for “peptides.”
Luminescence was analyzed in an InfiniteF200 luminescence reader.
Then, the cells were treated with a luminogenic peptide substrate in order to measure dead-cell protease activity, which is released from cells that have lost membrane integrity. […] The luminescence of this assay therefore represents dead cells. The 96 well plates were then analyzed in an InfiniteF200 luminescence reader.
Despite its proven ability to convert BCL-2 into a pro-apoptotic molecule, addition of the latter peptide (i.e. “Nor/Nur”; SEQ ID NO: 72) to cancer cells, even in high concentrations, is not sufficient to induce apoptosis, as the cellular target protein is located in the cytoplasm, but the peptide per se cannot effectively penetrate through the cell membrane to reach the target. In brief, MCF-7 breast cancer cells were incubated in the presence of this peptide for 24 h.
(§2) Subsequently, it was evaluated whether the NurNRTN fusion peptide is capable of penetrating cellular membranes and thereby induces pro-apoptotic activity within cells. MCF-7 human breast cancer cells were used as a model. The experimental approach was as described above (cf. Example 1). […] This effect was dose dependent: cytotoxicity increased with increasing concentrations of peptide.
as §2, with “NRTN4E-BP1” for “NurNRTN”

[3] = tested on: MCF7 cells; experiment: growth inhibition/toxicity (CellTiter-Glo viability, GAPDH mRNA levels)
Description: MCF7 cells were seeded at a density of 15.000 cells per well in 96 well plates. The cells were incubated for 24 hours at 37° C., 5% CO2 and 85% humidity in RPMI 1640 medium supplemented with 10% FCS (fetal calf serum) and L-glutamine. For functional assays, the cells were washed in OptiMEM medium and RPMI 1640 was replaced with OptiMEM (all reagents were purchased from Invitrogen Corporation, Carlsbad, Calif., USA). Complexes of siRNAs and peptides were formed by incubation of 100 nM siRNA with the indicated peptide concentrations in OptiMEM for 30 minutes at room temperature. The complexes were added to the cells and incubated for 3 hours. Subsequently, OptiMEM was replaced with normal RPMI 1640 growth medium. The cells were incubated for further 21 hours for generating bDNA lysates, and for further 45 hours for performing CellTiter-Glo or CytoTox-Glo assays (cf. below).
In order to measure the number of living cells the CellTiter-Glo Luminescent Cell Viability Assay (Promega Corporation, Madison, Wis., USA) was used according to the protocol of the manufacturer. The cells were incubated for 48 hours in the presence of peptides and siRNAs. Subsequently, the cells are lysed, and a luminescent signal proportional to the amount of ATP present is generated which, in turn, is proportional to the number of living cells present. Luminescence was analyzed in an InfiniteF200 luminescence reader.
Based on this observation, GAPDH mRNA levels were used as a general readout for toxicity: an average measurement of 100% GAPDH mRNA relative to the medium control was considered as non-toxic, values between 99% and 70% as moderate toxic, and values of less than 70% as toxic (cf. FIG. 3).
Similarly, peptides resulting in GAPDH mRNA values >70% were classified as “nontoxic”, whereas peptides that caused a reduction of GAPDH mRNA to lesser values were termed “toxic”.

GAAEAAARVYDLGLRRLRQRRRLRRERVRA (NRTN peptide sequence; listed as Homo sapiens)
transfection in the presence of medium with reduced serum concentration [1]: can still mediate transfection
cell viability / induction of apoptosis [2]: did not affect cell viability or lead to induction of apoptosis
interference with cell viability at doses effective for Eg5 knockdown ([3]; <10 μM): does not interfere with cell viability
cell viability / growth inhibition / toxicity (CellTiter-Glo, GAPDH mRNA levels) ([3]; MCF7 cells, peptide 1 μM to 20 μM): only minor effects on cell viability
